{"source": "patent US10927085B2", "about": "“1,2-naphthoquinone based derivative and method of preparing the same” (HUEN Co., Ltd., priority 2013, dated 2021)", "key": {"[1]": {"system": "C57BL/6J Lep ob/ob mice", "assay": "Weight loss effects in obese mice (ob/ob)", "type": "in vivo", "conditions": "for weight increase ratio vs controls (FIG. 1): Exp. Ex. 3-1: 6.5 week-old ob/ob mice, 100 mg/kg orally once every day for two weeks", "method": "6.5 week-old C57BL/6J Lep ob/ob mice having genetic obesity characteristics available from ORIENTBIO were prepared. Two mice were raised in each polycarbonate breeding cage (200 W×260 L×130H (mm), Three-shine) in which temperature was 22 to 24° C., relative humidity was 30 to 50%, illuminance was 150 to 300 lux, night and day were 12 hours, and exhaust was performed at 10 to 15 air changes per hour. As a feed, low fat diet (11.9 kcal % fat, 5053, Labdiet) manufactured by ORIENTBIO was used. The feed was contained in a feeder and free intake was allowed. As drinking water, water, which was contained in a 250 mL polycarbonate based bottle, purified through a filter and a sterilizer was used and free intake was allowed.\nFor administration, a disposable syringe fitted with a sonde for oral administration was used and 10 ml/kg of the compound was orally administered into the stomach. As controls, three C57BL/6J Lep ob/ob mice were administered 0.1% SLS in an amount of 100 mg/kg in the same manner as described above. After administration, a time-dependent weight increase ratio was measured and results are illustrated in FIG. 1 below.\nWeights of the experimental animals were measured immediately before administration of a test material and six times a week from an administration initiation day to a test termination day. Increased total weights were calculated by subtracting weights measured on an experiment initiation day from weights measured one day before an experiment termination day. Food intake amounts were calculated by measuring feed supply amounts and remaining amounts twice a week from an initiation day of test material administration to a test termination day for each individual.\nWeight increase ratios, weight change, and intake amounts depending on administration time were measured and results are illustrated in FIG. 2 below.\nWeight increase ratios, weight change, and intake amounts depending on administration time were measured and results are illustrated in FIG. 3 below.\nWeight increase ratios, weight change, and intake amounts depending on administration time were measured and results are illustrated in FIG. 4 below.\nWeight increase ratios, weight change, and intake amounts depending on administration time were measured and results are illustrated in FIG. 5 below.\nWeight increase ratios, weight change, and intake amounts depending on administration time were measured and results are illustrated in FIG. 6 below.\nWeight increase ratios, weight change, and intake amounts depending on administration time were measured and results are illustrated in FIG. 7 below.\nWeight increase ratios, weight change, and intake amounts depending on administration time were measured and results are illustrated in FIG. 8 below."}, "[2]": {"molecular_target": "NQO1 protein (Homo sapiens, UniProt P15559)", "sequence (P15559 whole entry, species assumed)": "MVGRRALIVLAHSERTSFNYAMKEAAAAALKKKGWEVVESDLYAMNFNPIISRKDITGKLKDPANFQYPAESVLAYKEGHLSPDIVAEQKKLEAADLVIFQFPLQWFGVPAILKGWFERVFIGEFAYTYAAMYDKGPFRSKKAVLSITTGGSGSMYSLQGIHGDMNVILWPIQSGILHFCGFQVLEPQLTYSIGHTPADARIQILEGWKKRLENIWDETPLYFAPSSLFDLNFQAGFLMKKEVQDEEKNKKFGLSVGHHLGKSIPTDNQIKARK", "assay": "NQO1 activity measurement (cytochrome C reduction)", "type": "biochemical", "method": "An enzyme reaction solution included 25 mM Tris/HCl (pH 7.4), 0.14% bovine serum albumin, 200 μM NADH, 77 μM cytochrome C, and 5 ng of NQO1 protein. Enzymatic reaction was initiated by adding NADH and performed at 37° C. In this regard, a reaction rate was measured by observing absorbance, which was increased due to reduction of cytochrome C, at 550 nm for 10 minutes and NQO1 activity was represented as an amount of reduced cytochrome C [nmol cytochrome C reduced/min/μg protein].\nExtinction coefficient for cytochrome C:21.1 mmol/L/cm=21.1 μmol/ml/cm"}, "[3]": {"system": "cells", "assay": "Measurement of lactate change amount within cells", "type": "cell-based", "method": "Cells were treated with 400 μl of 6% PCA, and then collected and extracted. Centrifugation (13,000 rpm, 10 min) was performed. A precipitate was dried using a Speed-Vac and then a weight of dried precipitate was measured. A supernatant was neutralized using 400 μl of 1 M KOH and a final volume thereof was adjusted to 1 ml using 0.33 M KH2PO4/K2HPO4, pH 7.5. Centrifugation (13,000 rpm, 10 min) was performed and the amount of lactate in a supernatant was measured (Megazyme, K-LATE)."}, "[4]": {"conditions": "5 μM, 37° C., absorbance at 550 nm for 10 minutes, 200 μM NADH, 77 μM cytochrome C, 5 ng NQO1 protein"}, "[5]": {"conditions": "Exp. Ex. 3-8: 9.5 week-old ob/ob mice, 150 mg/kg orally, otherwise as 3-1"}, "[6]": {"conditions": "Exp. Ex. 3-6: 12 week-old ob/ob mice, 150 mg/kg orally, seven days"}, "[7]": {"conditions": "Exp. Ex. 3-3: 6 week-old ob/ob mice, 100 mg/kg orally, otherwise as 3-1"}, "[8]": {"conditions": "Exp. Ex. 3-7: 6.5 week-old ob/ob mice, 150 mg/kg orally, seven days"}, "[9]": {"conditions": "Exp. Ex. 3-4: 11 week-old ob/ob mice, 100 mg/kg orally, six days"}, "[10]": {"conditions": "Exp. Ex. 3-2: 10.5 week-old ob/ob mice, 150 mg/kg orally, six days"}}, "note": "Read-outs that look alike come from different tables or passages of the source."}
{"smiles": "CCn1c2c(oc1=O)-c1ccccc1C(=O)C2=O", "note": "[Example 41]", "values": [{"measurement": "intake amount vs controls (FIG. 7)", "setting": "[1]; mouse, in vivo, po, 150 mg/kg", "result": "significantly decreased in some sections"}, {"measurement": "weight change vs controls (FIG. 7)", "setting": "[1]; mouse, in vivo, po, 150 mg/kg", "result": "significantly decreased in some sections"}, {"measurement": "weight increase ratio vs controls (FIG. 7)", "setting": "[1]; mouse, in vivo, po, 150 mg/kg", "result": "significantly decreased in some sections"}, {"measurement": "NQO1 activity (5 μM, [nmol cytochrome C reduced/min/μg protein])", "setting": "[2]", "result": "237.1 nmol cytochrome C reduced/min/μg protein"}, {"measurement": "Lactate change amount within cells (nmol/mg cell)", "setting": "[3]", "result": 5.2, "unit": "nmol/mg cell"}]}
{"smiles": "CC(C)(C)c1nc2c(o1)-c1ccccc1C(=O)C2=O", "note": "[Example 2, 2-tert-butylnaphtho[2,1-d]oxazole-4,5-dione]", "values": [{"measurement": "weight increase ratio vs controls (FIG. 1)", "setting": "[1]", "result": "significantly decreased"}, {"measurement": "NQO1 activity (5 μM, [nmol cytochrome C reduced/min/μg protein])", "setting": "[2]; [4]", "result": "243.2 nmol cytochrome C reduced/min/μg protein"}, {"measurement": "Lactate change amount within cells (nmol/mg cell)", "setting": "[3]", "result": 6.8, "unit": "nmol/mg cell"}]}
{"smiles": "CC(C)(C)c1nc2c(o1)C(=O)C(=O)c1cc(N)ccc1-2", "note": "[Example 30, 7-amino-2-tert-butylnaphtho[1,2-d]oxazole-4,5-dione]", "values": [{"measurement": "intake amount vs controls (FIG. 5)", "setting": "[1]; mouse, in vivo, po, 150 mg/kg", "result": "significantly decreased"}, {"measurement": "weight change vs controls (FIG. 5)", "setting": "[1]; mouse, in vivo, po, 150 mg/kg", "result": "significantly decreased"}, {"measurement": "Lactate change amount within cells (nmol/mg cell)", "setting": "[3]", "result": 7.3, "unit": "nmol/mg cell"}]}
{"smiles": "O=C1C(=O)c2c(oc(=O)n2Cc2ccc(F)cc2)-c2ccccc21", "note": "[Example 42]", "values": [{"measurement": "intake amount vs controls (FIG. 8)", "setting": "[1]; [5]", "result": "significantly decreased in some sections"}, {"measurement": "weight change vs controls (FIG. 8)", "setting": "[1]; [5]", "result": "significantly decreased in some sections"}, {"measurement": "weight increase ratio vs controls (FIG. 8)", "setting": "[1]; [5]", "result": "significantly decreased in some sections"}, {"measurement": "NQO1 activity (5 μM, [nmol cytochrome C reduced/min/μg protein])", "setting": "[2]; [4]", "result": "208.0 nmol cytochrome C reduced/min/μg protein"}, {"measurement": "Lactate change amount within cells (nmol/mg cell)", "setting": "[3]", "result": 7.1, "unit": "nmol/mg cell"}]}
{"smiles": "O=C1C(=O)c2oc(-c3ccc(F)cc3)nc2-c2cccnc21", "note": "[Example 36]", "values": [{"measurement": "intake amount vs controls (FIG. 6)", "setting": "[1]; [6]", "result": "significantly decreased"}, {"measurement": "weight change vs controls (FIG. 6)", "setting": "[1]; [6]", "result": "significantly decreased"}, {"measurement": "weight increase ratio vs controls (FIG. 6)", "setting": "[1]; [6]", "result": "significantly decreased"}, {"measurement": "NQO1 activity (5 μM, [nmol cytochrome C reduced/min/μg protein])", "setting": "[2]; [4]", "result": "936.1 nmol cytochrome C reduced/min/μg protein"}, {"measurement": "Lactate change amount within cells (nmol/mg cell)", "setting": "[3]", "result": 7.3, "unit": "nmol/mg cell"}]}
{"smiles": "COc1cccc2c1-c1oc(C(C)C)nc1C(=O)C2=O", "note": "[Example 8, 2-isopropyl-9-methoxynaphtho[2,1-d]oxazole-4,5-dione]", "values": [{"measurement": "intake amount vs controls (FIG. 3)", "setting": "[1]; [7]", "result": "significantly decreased"}, {"measurement": "weight increase ratio vs controls (FIG. 3)", "setting": "[1]; [7]", "result": "significantly decreased"}, {"measurement": "NQO1 activity (5 μM, [nmol cytochrome C reduced/min/μg protein])", "setting": "[2]; [4]", "result": "205.1 nmol cytochrome C reduced/min/μg protein"}, {"measurement": "Lactate change amount within cells (nmol/mg cell)", "setting": "[3]", "result": 6.2, "unit": "nmol/mg cell"}]}
{"smiles": "CC(C)c1nc2c(o1)-c1ccccc1C(=O)C2=O", "note": "[Example 1, 2-isopropylnaphtho[2,1-d]oxazole-4,5-dione]", "values": [{"measurement": "weight increase ratio vs controls (FIG. 1)", "setting": "[1]", "result": "significantly decreased"}, {"measurement": "NQO1 activity (5 μM, [nmol cytochrome C reduced/min/μg protein])", "setting": "[2]; [4]", "result": "255.2 nmol cytochrome C reduced/min/μg protein"}, {"measurement": "Lactate change amount within cells (nmol/mg cell)", "setting": "[3]", "result": 5.2, "unit": "nmol/mg cell"}]}
{"smiles": "CCc1nc2c(o1)C(=O)C(=O)c1ccccc1-2", "note": "[Example 51]", "values": [{"measurement": "intake amount vs controls (FIG. 7)", "setting": "[1]; [8]", "result": "significantly decreased in some sections"}, {"measurement": "weight change vs controls (FIG. 7)", "setting": "[1]; [8]", "result": "significantly decreased in some sections"}, {"measurement": "weight increase ratio vs controls (FIG. 7)", "setting": "[1]; [8]", "result": "significantly decreased in some sections"}, {"measurement": "NQO1 activity (5 μM, [nmol cytochrome C reduced/min/μg protein])", "setting": "[2]; [4]", "result": "240.9 nmol cytochrome C reduced/min/μg protein"}, {"measurement": "Lactate change amount within cells (nmol/mg cell)", "setting": "[3]", "result": 5.7, "unit": "nmol/mg cell"}]}
{"smiles": "COc1ccc(Br)c2c1-c1oc(C(C)C)nc1C(=O)C2=O", "note": "[Example 9, 6-bromo-2-isopropyl-9-methoxynaphtho[2,1-d]oxazole-4,5-dione]", "values": [{"measurement": "weight change vs controls (FIG. 4)", "setting": "[1]; [9]", "result": "significantly decreased"}, {"measurement": "weight increase ratio vs controls (FIG. 4)", "setting": "[1]; [9]", "result": "significantly decreased"}, {"measurement": "NQO1 activity (5 μM, [nmol cytochrome C reduced/min/μg protein])", "setting": "[2]; [4]", "result": "73.6 nmol cytochrome C reduced/min/μg protein"}, {"measurement": "Lactate change amount within cells (nmol/mg cell)", "setting": "[3]", "result": 7.3, "unit": "nmol/mg cell"}]}
{"smiles": "O=C1C(=O)c2nc(CN3CCOCC3)oc2-c2ccccc21", "note": "[Example 4, 2-(morpholinomethyl)naphtho[2,1-d]oxazole-4,5-dione]", "values": [{"measurement": "intake amount vs controls (FIG. 2)", "setting": "[1]; [10]", "result": "significantly decreased"}, {"measurement": "weight change vs controls (FIG. 2)", "setting": "[1]; [10]", "result": "significantly decreased"}, {"measurement": "weight increase ratio vs controls (FIG. 2)", "setting": "[1]; [10]", "result": "significantly decreased"}, {"measurement": "NQO1 activity (5 μM, [nmol cytochrome C reduced/min/μg protein])", "setting": "[2]; [4]", "result": "207.3 nmol cytochrome C reduced/min/μg protein"}, {"measurement": "Lactate change amount within cells (nmol/mg cell)", "setting": "[3]", "result": 9.3, "unit": "nmol/mg cell"}]}
{"smiles": "CC(C)(C)c1nc2c(o1)C(=O)C(=O)c1ccccc1-2", "note": "[Example 28, 2-tert-butylnaphtho[1,2-d]oxazole-4,5-dione]", "values": [{"measurement": "intake amount vs controls (FIG. 3)", "setting": "[1]; mouse, in vivo, po, 100 mg/kg", "result": "significantly decreased"}, {"measurement": "Lactate change amount within cells (nmol/mg cell)", "setting": "[3]", "result": 7.4, "unit": "nmol/mg cell"}]}
{"smiles": "O=C1C(=O)c2oc(-c3ccccc3)nc2-c2ccccc21", "note": "[Example 27]", "values": [{"measurement": "weight change vs controls (FIG. 4)", "setting": "[1]; mouse, in vivo, po, 100 mg/kg", "result": "significantly decreased"}, {"measurement": "Lactate change amount within cells (nmol/mg cell)", "setting": "[3]", "result": 5.8, "unit": "nmol/mg cell"}]}
{"smiles": "CN(C)Cc1nc2c(o1)-c1ccccc1C(=O)C2=O", "note": "[Example 5, 2-((dimethylamino)methyl)naphtho[2,1-d]oxazole-4,5-dione]", "values": [{"measurement": "intake amount vs controls (FIG. 2)", "setting": "[1]; mouse, in vivo, po, 150 mg/kg", "result": "significantly decreased"}, {"measurement": "weight change vs controls (FIG. 2)", "setting": "[1]; mouse, in vivo, po, 150 mg/kg", "result": "significantly decreased"}, {"measurement": "Lactate change amount within cells (nmol/mg cell)", "setting": "[3]", "result": 5.9, "unit": "nmol/mg cell"}]}
